Assay results reported in patent publication US20250326744A1, “PIPERAZINE DERIVATIVE OR SALT THEREOF, AND PHARMACEUTICAL COMPOSITION” (priority 2022, published 2025).
Where a name gives a salt, the structure may show the parent alone.

What was measured:
[1] = test system: mexB (EC) strain; experiment: Efflux ability inhibition effect on drug efflux pump MexB (Test Examples 1 and 3): proliferation (OD595) of mexB (EC) strain with EM or LVFX at 1/4 MIC, EC75; type: cell-based, Escherichia coli; conditions: Table 53, Test Example 3, same manner as Test Example 1; for EC75, mexB (EC) strain, LVFX: combined with LVFX at 1/4 MIC
In short: (§1)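 E. coli ΔacrB/ΔtolC strains carrying P. aeruginosa MexAB-OprM or MexXY-OprM were grown in LB for 16 to 20 hours with EM or LVFX at ¼ MIC plus compound (0 to 800 μM). Growth was read as OD595. EC75 is the lowest compound concentration giving ≥75% growth inhibition versus antibiotic alone.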

[2] = test system: mexY (EC) strain; experiment: Efflux ability inhibition effect on drug efflux pump MexY (Test Examples 1 and 3): proliferation (OD595) of mexY (EC) strain with EM or LVFX at 1/4 MIC, EC75; type: cell-based, Escherichia coli; conditions: Table 53, Test Example 3, same manner as Test Example 1; for EC75, mexY (EC) strain, LVFX: combined with LVFX at 1/4 MIC
In short: as §1

[3] = test system: mexB (PA) strain; experiment: Combinational effect with antibacterial agent against Pseudomonas aeruginosa (Test Examples 2 and 4): mexB (PA) strain with LVFX, TC or AZT at 1/4 MIC, EC99; type: cell-based; conditions: mexB (PA) strain, Test Example 4; for EC99, combinational effect with AZT, mexB (PA): combined with AZT at 1/4 MIC; for EC99, combinational effect with LVFX, mexB (PA): combined with LVFX at 1/4 MIC; for EC99, combinational effect with TC, mexB (PA): combined with TC at 1/4 MIC
In short: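 P. aeruginosa mexB (PA) strain, lacking MexCD-OprJ, MexEF-OprN and MexXY and overexpressing MexAB-OprM, grown 16–20 h in CAMHB (10^4–5 CFU/well) with LVFX, TC or AZT at ¼ MIC plus test compound at 0–800 μM. Growth read as OD595; EC99 is the lowest compound concentration giving ≥99% growth inhibition.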

[4] = test system: S-3769 strain; experiment: Combinational effect with antibacterial agent against Pseudomonas aeruginosa (Test Examples 2 and 4): S-3769 strain with AMK or GM at 1/4 MIC, EC99; type: cell-based; conditions: S-3769 strain, Test Example 4; for EC99, combinational effect with AMK, S-3769 strain: combined with AMK at 1/4 MIC; for EC99, combinational effect with GM, S-3769 strain: combined with GM at 1/4 MIC
In short: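 P. aeruginosa S-3769 (clinical isolate, MexY overexpressed) grown 16–20 h in CAMHB, 10^4 to 5 CFU/well, with AMK or GM at ¼ MIC plus test compound 0–800 μM. Growth read as OD595; EC99 is the lowest compound concentration giving ≥99% growth inhibition.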

SMILES | EC75, mexB (EC) strain, EM ([1]; combined with EM at 1/4 MIC) | EC75, mexB (EC) strain, LVFX [1] | EC75, mexY (EC) strain, EM ([2]; combined with EM at 1/4 MIC) | EC75, mexY (EC) strain, LVFX [2] | EC99, combinational effect with AZT, mexB (PA) [3] | EC99, combinational effect with LVFX, mexB (PA) [3] | EC99, combinational effect with TC, mexB (PA) [3] | EC99, combinational effect with AMK, S-3769 strain [4] | EC99, combinational effect with GM, S-3769 strain [4]
COc1cncc(F)c1CN1CCN(C(=O)[C@H](N)C2CCN(CCc3cc(Cl)ccc3-c3ccccc3)CC2)CC1 [Example 514, Hydrobromide of (R)-2-amino-2-(1-(2-(4-chloro-[1,1-biphenyl]-2-yl)ethyl)piperidin-4-yl)-1-(4-((3-fluoro-5-methoxypyridin-4-yl)methyl)piperazin-1-yl)ethan-1-one] | B (25 μM<EC75≤100 μM) | B (25 μM<EC75≤100 μM) | B (25 μM<EC75≤100 μM) | B (25 μM<EC75≤100 μM) | C (100 μM<EC99) | C (100 μM<EC99) | C (100 μM<EC99) | B (25 μM<EC99≤100 μM) | B (25 μM<EC99≤100 μM)
N[C@@H](C(=O)N1CCN(C[C@@H]2CCCN2)CC1)C1CCN(CCc2cc(Cl)ccc2-c2ccccc2)CC1 [Example 538, Hydrobromide of (R)-2-amino-2-(1-(2-(4-chloro-[1,1-biphenyl]-2-yl)ethyl)piperidin-4-yl)-1-(4-(((S)-pyrrolidin-2-yl)methyl)piperazin-1-yl)ethan-1-one] |  | B (25 μM<EC75≤100 μM) |  | A (12.5 μM<EC75≤25 μM) | C (100 μM<EC99) | C (100 μM<EC99) | C (100 μM<EC99) | C (100 μM<EC99) | C (100 μM<EC99)
